Test results taken from ChEMBL document CHEMBL1151484, “Preparation and anti-HIV activity of N-3 amino substituted thymidine nucleoside analogs” (Bioorg Med Chem Lett, 1992).

Key:
CCRF-CEM [1] = assay: In vitro anti -HIV activity of compound determined against the LAV Bru infected CEM cells; Highly cytotoxic at low dose; type: functional, Homo sapiens
CCRF-CEM [2] = assay: In vitro anti -HIV activity of compound determined against the LAV Bru strain infected CEM cells at dose up to 100 uM; type: functional, Homo sapiens
[3] = Tested for bone marrow cell toxicity expressed as colony forming unit of granulocyte -macrophage at a compound concentration of 360 mM in experiment-1; type: cell-based; conditions: human
[4] = Tested for bone marrow cell toxicity expressed as burst forming unit for erythrocyte at a compound concentration of 0.036 mM in experiment-1; type: cell-based; conditions: human, 36 µM
[5] = Tested for bone marrow cell toxicity expressed as colony forming unit of granulocyte -macrophage at a compound concentration of 1 mM in experiment-2; type: cell-based; conditions: human, 1000 µM
Mus musculus [6] = assay: Effect of compound on Friend Complex Murine Leukemia Virus (F-MuLV) induced splenomegaly, expressed as percent inhibition at a dose of 40 mg/kg; type: functional
[7] = Tested for bone marrow cell toxicity expressed as burst forming unit for erythrocyte at a compound concentration of 0.36 mM in experiment-1; type: cell-based; conditions: human, 360 µM
[8] = Tested for bone marrow cell toxicity expressed as colony forming unit of granulocyte -macrophage at a compound concentration of 3.6/30 mM in experiment-2; type: cell-based; conditions: human
[9] = Tested for bone marrow cell toxicity expressed as colony forming unit of granulocyte -macrophage at a compound concentration of 10 mM in experiment-2; type: cell-based; conditions: human
[10] = Tested for bone marrow cell toxicity expressed as burst forming unit for erythrocyte at a compound concentration of 3.6/3 mM in experiment-2; type: cell-based; conditions: human
Mus musculus [11] = assay: Effect of compound on Friend Complex Murine Leukemia Virus (F-MuLV) induced splenomegaly, spleen weights at a dose of 12 mg/kg; type: functional
[12] = Tested for bone marrow cell toxicity expressed as colony forming unit of granulocyte -macrophage at a compound concentration of 0.36 mM in experiment-1; type: cell-based; conditions: human, 360 µM
[13] = Tested for bone marrow cell toxicity expressed as colony forming unit of granulocyte -macrophage at a compound concentration of 3.6/30 mM in experiment-1; type: cell-based; conditions: human
[14] = Tested for bone marrow cell toxicity expressed as colony forming unit of granulocyte -macrophage at a compound concentration of 0.036 mM in experiment-1; type: cell-based; conditions: human, 36 µM
[15] = Tested for bone marrow cell toxicity expressed as burst forming unit for erythrocyte at a compound concentration of 10 mM in experiment-2; type: cell-based; conditions: human
[16] = Tested for bone marrow cell toxicity expressed as burst forming unit for erythrocyte at a compound concentration of 36/30 mM in experiment-2; type: cell-based; conditions: human
[17] = Tested for bone marrow cell toxicity expressed as colony forming unit of granulocyte -macrophage at a compound concentration of 36/30 mM in experiment-2; type: cell-based; conditions: human
Mus musculus [18] = assay: Effect of compound on Friend Complex Murine Leukemia Virus (F-MuLV) induced splenomegaly, spleen weights at a dose of 4 mg/kg; type: functional
[19] = Tested for bone marrow cell toxicity expressed as burst forming unit for erythrocyte at a compound concentration of 1 mM in experiment-2; type: cell-based; conditions: human, 1000 µM
Mus musculus [20] = assay: Effect of compound on Friend Complex Murine Leukemia Virus (F-MuLV) induced splenomegaly, spleen weights at a dose of 40 mg/kg; type: functional
[21] = Tested for bone marrow cell toxicity expressed as burst forming unit for erythrocyte at a compound concentration of 0.036 mM in experiment-2; type: cell-based; conditions: human, 36 µM
[22] = Tested for bone marrow cell toxicity expressed as burst forming unit for erythrocyte at a compound concentration of 100 mM in experiment-2; type: cell-based; conditions: human
[23] = Tested for bone marrow cell toxicity expressed as burst forming unit for erythrocyte at a compound concentration of 360 mM in experiment-1; type: cell-based; conditions: human
[24] = Tested for bone marrow cell toxicity expressed as burst forming unit for erythrocyte at a compound concentration of 3.6/3 mM in experiment-1; type: cell-based; conditions: human
Mus musculus [25] = assay: Effect of compound on Friend Complex Murine Leukemia Virus (F-MuLV) induced splenomegaly, expressed as percent inhibition at a dose of 4 mg/kg; type: functional
[26] = Tested for bone marrow cell toxicity expressed as colony forming unit of granulocyte -macrophage at a compound concentration of 300 mM in experiment-1; type: cell-based; conditions: human
[27] = Tested for bone marrow cell toxicity expressed as colony forming unit of granulocyte -macrophage at a compound concentration of 100 mM in experiment-2; type: cell-based; conditions: human
Mus musculus [28] = assay: Effect of compound on Friend Complex Murine Leukemia Virus (F-MuLV) induced splenomegaly, expressed as percent inhibition at a dose of 12 mg/kg; type: functional
[29] = Tested for bone marrow cell toxicity expressed as colony forming unit of granulocyte -macrophage at a compound concentration of 36/30 mM in experiment-1; type: cell-based; conditions: human
[30] = Tested for bone marrow cell toxicity expressed as burst forming unit for erythrocyte at a compound concentration of 36/30 mM in experiment-1; type: cell-based; conditions: human
[31] = Tested for bone marrow cell toxicity expressed as burst forming unit for erythrocyte at a compound concentration of 10 mM in experiment-1; type: cell-based; conditions: human
[32] = Tested for bone marrow cell toxicity expressed as colony forming unit of granulocyte -macrophage at a compound concentration of 30 mM in experiment-2; type: cell-based; conditions: human
[33] = Tested for bone marrow cell toxicity expressed as burst forming unit for erythrocyte at a compound concentration of 100 mM in experiment-1; type: cell-based; conditions: human
[34] = Tested for bone marrow cell toxicity expressed as colony forming unit of granulocyte -macrophage at a compound concentration of 10 mM in experiment-1; type: cell-based; conditions: human
[35] = Tested for bone marrow cell toxicity expressed as colony forming unit of granulocyte -macrophage at a compound concentration of 3 mM in experiment-1; type: cell-based; conditions: human, 3000 µM
[36] = Tested for bone marrow cell toxicity expressed as colony forming unit of granulocyte -macrophage at a compound concentration of 1 mM in experiment-1; type: cell-based; conditions: human, 1000 µM
[37] = Tested for bone marrow cell toxicity expressed as colony forming unit of granulocyte -macrophage at a compound concentration of 100 mM in experiment-1; type: cell-based; conditions: human
[38] = Tested for bone marrow cell toxicity expressed as burst forming unit for erythrocyte at a compound concentration of 0.3 mM in experiment-2; type: cell-based; conditions: human, 300 µM
[39] = Tested for bone marrow cell toxicity expressed as burst forming unit for erythrocyte at a compound concentration of 1 mM in experiment-1; type: cell-based; conditions: human, 1000 µM
[40] = Tested for bone marrow cell toxicity expressed as burst forming unit for erythrocyte at a compound concentration of 30 mM in experiment-1; type: cell-based; conditions: human
[41] = Tested for bone marrow cell toxicity expressed as burst forming unit for erythrocyte at a compound concentration of 30 mM in experiment-2; type: cell-based; conditions: human
[42] = Tested for bone marrow cell toxicity expressed as colony forming unit of granulocyte -macrophage at a compound concentration of 0.3 mM in experiment-2; type: cell-based; conditions: human, 300 µM
[43] = Tested for bone marrow cell toxicity expressed as burst forming unit for erythrocyte at a compound concentration of 3 mM in experiment-2; type: cell-based; conditions: human, 3000 µM
[44] = Tested for bone marrow cell toxicity expressed as burst forming unit for erythrocyte at a compound concentration of 3 mM in experiment-1; type: cell-based; conditions: human, 3000 µM
[45] = Tested for bone marrow cell toxicity expressed as colony forming unit of granulocyte -macrophage at a compound concentration of 3 mM in experiment-2; type: cell-based; conditions: human, 3000 µM

Work on `Cc1cn(C2CC(F)C(CO)O2)c(=O)n(N)c1=O` (stereo unspecified) yielded an Activity (CCRF-CEM [1]) of 0.1 µM.
For `Cc1cn(C2C=CC(CO)O2)c(=O)n(N)c1=O` (stereo unspecified), the Activity (CCRF-CEM [2]) was 40 µM.
Work on `Cc1cn(C2CC(N=[N+]=[N-])C(CO)O2)c(=O)n(N)c1=O` (stereo unspecified) yielded a CFU [3] of 0.7, a BFU [4] of 94 and a CFU [5] of 12.3. It also gave an inhibition in vivo at 40 mg/kg (Mus musculus [6]) of 55%, a BFU [7] of 142 and a CFU [8] of 14. It also gave a CFU [9] of 10, a BFU [10] of 218 and a Spleen weight (Mus musculus [11]) of 715 mg. The CFU [12] was 31.3, the CFU [13] was 31.3 and the CFU [14] was 48.3. For the same molecule, the BFU [15] was 170, the BFU [16] was 198 and the CFU [17] was 11.3. The Spleen weight (Mus musculus [18]) was 907 mg, the BFU [19] was 249 and the Spleen weight (Mus musculus [20]) was 607 mg. The BFU [21] was 10, the BFU [22] was 158 and the BFU [23] was 111. The BFU [24] was 140, the inhibition in vivo at 4 mg/kg (Mus musculus [25]) was 28% and the CFU [26] was 0.3. For the same molecule, the CFU [27] was 9.3, the inhibition in vivo at 12 mg/kg (Mus musculus [28]) was 46% and the CFU [29] was 28.3. It also gave a BFU [30] of 98.
In the case of `Cc1cn([C@H]2C[C@H](F)[C@@H](CO)O2)c(=O)[nH]c1=O` [ALOVUDINE], the Activity (CCRF-CEM [1]) is reported as 0.1 µM.
Molecule `Cc1cn([C@H]2C[C@H](N=[N+]=[N-])[C@@H](CO)O2)c(=O)[nH]c1=O` [ZIDOVUDINE] has a CFU [5] of 4.7, an inhibition in vivo at 40 mg/kg (Mus musculus [6]) of 78% and a BFU [31] of 76. For the same molecule, the CFU [32] was 0, the CFU [9] was 1 and the Spleen weight (Mus musculus [11]) was 669 mg. The BFU [33] was 4, the BFU [15] was 79 and the CFU [34] was 4.3. It also gave a CFU [35] of 18.7, a Spleen weight (Mus musculus [18]) of 706 mg and a CFU [36] of 33.4. The CFU [37] was 1, the BFU [19] was 132 and the Spleen weight (Mus musculus [20]) was 357 mg. The BFU [38] was 143, the BFU [39] was 120 and the BFU [40] was 46. It also gave a BFU [41] of 59, a CFU [42] of 10.7 and a BFU [43] of 79. For the same molecule, the inhibition in vivo at 4 mg/kg (Mus musculus [25]) was 46%, the BFU [44] was 88 and the inhibition in vivo at 12 mg/kg (Mus musculus [28]) was 50%. It also gave a CFU [45] of 4.5.
